Laboratory results published in US20080026996A1, “Selective Vpac2 Receptor Reptide Agonists” (ELI LILLY AND COMPANY, priority 2004, published 2008).
Where no end group is shown, it is not given here. [ ]: non-standard residue; d: D form. The star is where a group is joined. hArg = N=C(N)NCCCC[C@H](N)C(=O)O; Orn = NCCC[C@H](N)C(=O)O; Hexanoyl = CCCCCC(=O)*; Aib = CC(C)(N)C(=O)O

Columns and labels:
[1] = molecular target: T1, human PAC1 (Homo sapiens, UniProt P41586); experiment: Filter binding assay, membranes of cells transiently transfected with human PAC1, 125I-labeled PACAP-27 tracer (Table 2); set-up: expressed in transfected cells; conditions: read-out: Human PAC1 Receptor Binding
T1 sequence (P41586 21-468): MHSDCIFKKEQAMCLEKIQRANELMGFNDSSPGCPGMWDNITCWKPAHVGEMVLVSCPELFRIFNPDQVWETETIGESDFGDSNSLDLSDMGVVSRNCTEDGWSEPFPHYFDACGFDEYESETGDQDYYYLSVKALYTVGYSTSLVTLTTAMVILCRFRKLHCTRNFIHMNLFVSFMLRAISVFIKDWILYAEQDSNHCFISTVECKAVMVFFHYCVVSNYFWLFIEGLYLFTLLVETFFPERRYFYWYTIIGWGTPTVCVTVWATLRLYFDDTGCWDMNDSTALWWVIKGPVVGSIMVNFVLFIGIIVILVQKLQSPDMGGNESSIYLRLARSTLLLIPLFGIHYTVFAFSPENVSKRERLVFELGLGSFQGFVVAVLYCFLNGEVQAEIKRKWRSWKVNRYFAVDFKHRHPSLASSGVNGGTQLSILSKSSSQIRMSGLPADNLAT
Method in brief: (§1)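 Radioligand displacement was measured with 2.5 μg membrane protein per well and roughly 40000 cpm of iodinated tracer. After a 1-hour incubation, bound and free label were separated on BSA-blocked glass-fibre filters and quantified by scintillation.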

[2] = molecular target: T2, human VPAC1 (Homo sapiens, UniProt P32241); experiment: Filter binding assay, membranes of cells transiently transfected with human VPAC1, 125I-labeled VIP tracer (Table 2); set-up: expressed in transfected cells; conditions: read-out: Human VPAC1 Receptor Binding
T2 sequence (P32241 31-457): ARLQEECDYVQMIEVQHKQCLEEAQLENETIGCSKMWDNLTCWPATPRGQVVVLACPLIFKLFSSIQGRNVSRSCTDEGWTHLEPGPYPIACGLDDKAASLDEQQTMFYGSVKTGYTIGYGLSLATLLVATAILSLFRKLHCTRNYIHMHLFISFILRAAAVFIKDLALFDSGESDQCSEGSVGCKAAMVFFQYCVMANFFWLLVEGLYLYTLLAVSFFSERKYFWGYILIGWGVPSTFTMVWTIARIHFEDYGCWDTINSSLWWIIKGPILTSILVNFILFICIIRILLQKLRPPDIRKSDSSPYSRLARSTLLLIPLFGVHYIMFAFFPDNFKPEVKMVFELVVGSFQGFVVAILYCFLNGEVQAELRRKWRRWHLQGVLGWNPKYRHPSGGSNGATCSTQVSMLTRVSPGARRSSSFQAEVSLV
Method in brief: as §1

[3] = molecular target: T3, rat VPAC2 receptor (Rattus norvegicus, UniProt P35000); experiment: DiscoveRx in vitro potency, CHO-PO cells transiently transfected with rat VPAC 2 receptor DNA; format: cell-based; set-up: expressed in transfected cells; host or cells: CHO-PO, transient
T3 sequence (P35000 23-437): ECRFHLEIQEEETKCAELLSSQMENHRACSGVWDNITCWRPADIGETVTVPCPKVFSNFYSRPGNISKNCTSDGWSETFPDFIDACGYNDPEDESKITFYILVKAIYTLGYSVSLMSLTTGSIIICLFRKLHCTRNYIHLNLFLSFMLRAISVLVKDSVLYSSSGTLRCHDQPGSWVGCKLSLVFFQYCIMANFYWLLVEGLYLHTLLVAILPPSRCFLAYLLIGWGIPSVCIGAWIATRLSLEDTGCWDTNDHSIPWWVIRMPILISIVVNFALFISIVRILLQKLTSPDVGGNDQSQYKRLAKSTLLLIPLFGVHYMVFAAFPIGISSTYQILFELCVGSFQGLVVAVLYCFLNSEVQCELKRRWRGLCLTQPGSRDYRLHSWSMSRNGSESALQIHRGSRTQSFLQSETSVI
Description: Also, the cells are washed twice. […] The stimuli are present for 30 minutes. Then, the assay buffer is gently removed.

[4] = Rat serum stability studies (remaining active peptide by DiscoveRx cAMP on CHO-VPAC2 cells); format: in vitro ADME
Method in brief: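 EC50 from a DiscoveRx cAMP read-out on CHO-VPAC2 cells indexes how much peptide stays active after 18 h in rat serum at 37° C without aprotinin, against an aprotinin-protected 4° C aliquot.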

[5] = molecular target: T4, human VPAC2 (Homo sapiens, UniProt P41587); experiment: Alpha screen cAMP in vitro potency, human VPAC2 receptor; format: cell-based; conditions: cAMP generation; single result from two analyses performed in a single run; read-out: Human VPAC2 Receptor: Alpha Screen EC50
T4 construct: expressed in transfected cells
T4 sequence (P41587 24-438): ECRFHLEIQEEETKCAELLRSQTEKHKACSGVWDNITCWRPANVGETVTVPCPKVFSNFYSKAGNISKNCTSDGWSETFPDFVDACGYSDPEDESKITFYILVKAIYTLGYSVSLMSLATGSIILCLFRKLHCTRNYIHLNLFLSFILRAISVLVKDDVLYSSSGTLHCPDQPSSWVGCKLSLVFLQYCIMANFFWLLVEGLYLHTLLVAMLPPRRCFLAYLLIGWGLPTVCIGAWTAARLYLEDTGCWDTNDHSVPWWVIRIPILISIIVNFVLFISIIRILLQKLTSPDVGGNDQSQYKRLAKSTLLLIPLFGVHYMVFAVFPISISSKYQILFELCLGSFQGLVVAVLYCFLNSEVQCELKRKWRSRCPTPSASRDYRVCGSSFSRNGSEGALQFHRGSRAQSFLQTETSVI
Method in brief: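 Dissociated cells, 50,000 per point in stimulation buffer, were incubated with stimuli and AlphaScreen acceptor beads for 60 min.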

[6] = molecular target: T4, human VPAC2; experiment: Filter binding assay, membranes of stable VPAC2 cell line, 125I-labeled VIP tracer (Table 2); conditions: read-out: Human VPAC2 Receptor Binding
Method in brief: as §1

Molecule	IC50 [1] [nM]	IC50 [2] [µM]	EC50 [3] [nM]	Rat Serum Stability (estimated purity in % after 18 hours) [4] [%]	EC50 [5] [nM]	IC50 [6] [nM]	Rat Serum Stability (Estimated purity in % after 72 hours) [4] [%]
Hexanoyl-HSDAVFTDNYTRLK[Aib]QVAA[Aib]KYLQSIKNKRYGGPSSGAPPPS [Agonist P318]	> 25000	> 3	0.09	29.95	0.32	0.63	–
CCCCCC(=O)N[C@@H](Cc1c[nH]cn1)C(=O)N[C@@H](CO)C(=O)N[C@@H](CC(=O)O)C(=O)N[C@@H](C)C(=O)N[C@H](C(=O)N[C@@H](Cc1ccccc1)C(=O)N[C@H](C(=O)N[C@@H](CC(=O)O)C(=O)N[C@@H](CC(N)=O)C(=O)N[C@@H](Cc1ccc(O)cc1)C(=O)N[C@H](C(=O)N[C@@H](CCCNC(=N)N)C(=O)N[C@@H](CC(C)C)C(=O)N[C@@H](CCCNC(=N)N)C(=O)N[C@@H](CCCCN)C(=O)N[C@@H](CCC(N)=O)C(=O)N[C@H](C(=O)N[C@@H](C)C(=O)N[C@@H](C)C(=O)NC(C)(C)C(=O)N[C@@H](CCCCN)C(=O)N[C@@H](Cc1ccc(O)cc1)C(=O)N[C@@H](CC(C)C)C(=O)N[C@@H](CCC(N)=O)C(=O)N[C@@H](CO)C(=O)N[C@H](C(=O)N[C@@H](CCCCN)C(=O)N[C@@H](CC(N)=O)C(=O)N[C@@H](CCCCN)C(=O)N[C@@H](CCCNC(=N)N)C(=O)N[C@@H](Cc1ccc(O)cc1)C(=O)NCC(=O)NCC(=O)N1CCC[C@H]1C(=O)N[C@@H](CO)C(=O)N[C@@H](CO)C(=O)NCC(=O)N[C@@H](C)C(=O)N1CCC[C@H]1C(=O)N1CCC[C@H]1C(=O)N1CCC[C@H]1C(=O)N[C@@H](CO)C(=O)O)[C@@H](C)CC)C(C)C)[C@@H](C)O)[C@@H](C)O)C(C)C [Agonist P169]	482	0.24	0.07	0.40	0.14	0.26	–
CCCCCC(=O)N[C@@H](Cc1c[nH]cn1)C(=O)N[C@@H](CO)C(=O)N[C@@H](CC(=O)O)C(=O)N[C@@H](C)C(=O)N[C@H](C(=O)N[C@@H](Cc1ccccc1)C(=O)N[C@H](C(=O)N[C@@H](CC(=O)O)C(=O)N[C@@H](CC(N)=O)C(=O)N[C@@H](Cc1ccc(O)cc1)C(=O)N[C@H](C(=O)N[C@@H](CCCNC(=N)N)C(=O)N[C@@H](CC(C)C)C(=O)N[C@@H](CCCNC(=N)N)C(=O)NC(C)(C)C(=O)N[C@@H](CCC(N)=O)C(=O)N[C@H](C(=O)N[C@@H](C)C(=O)N[C@@H](C)C(=O)NC(C)(C)C(=O)N[C@@H](CCCCN)C(=O)N[C@@H](Cc1ccc(O)cc1)C(=O)N[C@@H](CC(C)C)C(=O)N[C@@H](CCC(N)=O)C(=O)N[C@@H](CO)C(=O)N[C@H](C(=O)N[C@@H](CCCN)C(=O)N[C@@H](CCCN)C(=O)NCC(=O)NCC(=O)N1CCC[C@H]1C(=O)N[C@@H](CO)C(=O)N[C@@H](CO)C(=O)NCC(=O)N[C@@H](C)C(=O)N1CCC[C@H]1C(=O)N1CCC[C@H]1C(=O)N1CCC[C@H]1C(=O)N[C@@H](CO)C(=O)O)[C@@H](C)CC)C(C)C)[C@@H](C)O)[C@@H](C)O)C(C)C [Agonist P352]	–	> 3	0.09	45.09	0.14	0.6	2.2
Hexanoyl-HSDAVFTDQYTRLR[Aib]QVAA[Aib]KYLQSIKQKRYGGPSSGAPPPS [Agonist P315]	–	> 3	0.04	24.00	0.19	0.29	–
CCCCCC(=O)N[C@@H](Cc1c[nH]cn1)C(=O)N[C@@H](CO)C(=O)N[C@@H](CC(=O)O)C(=O)N[C@@H](C)C(=O)N[C@H](C(=O)N[C@@H](Cc1ccccc1)C(=O)N[C@H](C(=O)N[C@@H](CC(=O)O)C(=O)N[C@@H](CC(N)=O)C(=O)N[C@@H](Cc1ccc(O)cc1)C(=O)N[C@H](C(=O)N[C@@H](CCCCNC(=N)N)C(=O)N[C@@H](CC(C)C)C(=O)N[C@@H](CCCNC(=N)N)C(=O)NC(C)(C)C(=O)N[C@@H](CCC(N)=O)C(=O)N[C@H](C(=O)N[C@@H](C)C(=O)N[C@@H](C)C(=O)NC(C)(C)C(=O)N[C@@H](CCCCN)C(=O)N[C@@H](Cc1ccc(O)cc1)C(=O)N[C@@H](CC(C)C)C(=O)N[C@@H](CCC(N)=O)C(=O)N[C@@H](CO)C(=O)N[C@H](C(=O)N[C@@H](CCCCNC(=N)N)C(=O)N[C@@H](CC(N)=O)C(=O)N[C@@H](CCCCNC(=N)N)C(=O)N[C@@H](CCCCNC(=N)N)C(=O)N[C@@H](Cc1ccc(O)cc1)C(=O)NCC(=O)NCC(=O)N1CCC[C@H]1C(=O)N[C@@H](CO)C(=O)N[C@@H](CO)C(=O)NCC(=O)N[C@@H](C)C(=O)N1CCC[C@H]1C(=O)N1CCC[C@H]1C(=O)N1CCC[C@H]1C(=O)N[C@@H](CO)C(=O)O)[C@@H](C)CC)C(C)C)[C@@H](C)O)[C@@H](C)O)C(C)C [Agonist P338]	–	> 3	0.07	36.61	0.46	0.76	–
Hexanoyl-HSDAVFTDNYT[Orn]LR[Aib]QVAA[Aib]KYLQSIKNKRYGGPSSGAPPPS [Agonist P344]	–	> 3	0.06	50.19	0.13	0.25	43.0
Hexanoyl-HSDAVFTDNYTRL[hArg][Orn]QVAAKKYLQSIKNKRYGGPSSGAPPPS [Agonist P308]	–	0.262	0.09	0.97	0.26	0.34	–
